Assay results reported in patent US7338776B2, “Production of UGPPase” (JCR Pharmaceuticals Co., Ltd., priority 2002, dated 2008).
One block for each molecule: values may come before it.

Assays:
Porcine UGPPase = biological target: T1, Porcine UGPPase (Sus scrofa, UniProt Q865Y9); test: UGPPase activity measurement (G1P produced, coupled NADH read-out), substrate specificity and UDPG dependence, porcine enzyme; format: biochemical, pig; conditions: 5 mM of corresponding substrate, UDPG = 100%
T1 construct: Fresh porcine kidney, 3.6-kg of weight, was homogenized; from tissue; host or cells: porcine kidney
T1 sequence (Q865Y9 1-222): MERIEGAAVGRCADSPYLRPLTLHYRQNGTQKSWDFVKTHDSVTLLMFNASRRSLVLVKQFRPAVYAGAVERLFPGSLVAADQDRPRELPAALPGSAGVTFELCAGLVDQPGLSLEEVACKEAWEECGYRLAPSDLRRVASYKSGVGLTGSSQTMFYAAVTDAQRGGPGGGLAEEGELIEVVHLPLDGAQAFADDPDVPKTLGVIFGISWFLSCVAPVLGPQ
Experimental: (§1) UGPPase activity is defined based on the amount of G1P produced by the enzyme. The measurement is carried in two-step reactions according to the method reported by Rodriguez-Lopez et al. (11). In the first reaction, 50 μl of the reaction mixture consisting of a sample containing UGPPase, 0-20 mM concentration of a sugar nucleotide (UDP-, ADP- or GDP-glucose)(SIGMA), 20 mM MgCl2, and 50 mM Tris-HCl (pH 9.0), and the mixture is incubated at 37° C. for 30 minutes. As a blank, the same sample that has been boiled for two minutes to inactivate UGPPase is used. After the incubation period, the reaction is terminated by a two-minute boiling, and the mixture centrifuged at 20,000 g for 10 minutes at 4° C.
(§2) The reaction mixture is placed in a 96-well FluoroNunc™ plate (NUNC) and incubated at 37° C. for 10 minutes. This second reaction produces an equimolar amount of NADH to that of G1P produced in the first reaction. The amount of NADH is determined by measuring OD at 340 nm using a microplate reader (MOLECULAR DEVICE).
(§3) The activity was calculated as follows: 1U=[a]/30/0.03 where [a]is the amount in μmol of NADH produced in the reaction.
(§4) The above conditions of the first reaction were modified according to the purpose of each of the test, as specifically indicated below.

human UGPPase = biological target: T2, human UGPPase (Homo sapiens, UniProt O95848); test: UGPPase activity measurement (G1P produced, coupled NADH read-out), substrate specificity and UDPG dependence, human recombinant enzyme; format: biochemical; conditions: 5 mM of corresponding substrate, UDPG = 100%
T2 construct: made in house; host or cells: E. coli AD494(DE3), plasmid pET11a-AAD15563.1
T2 sequence (O95848 1-222): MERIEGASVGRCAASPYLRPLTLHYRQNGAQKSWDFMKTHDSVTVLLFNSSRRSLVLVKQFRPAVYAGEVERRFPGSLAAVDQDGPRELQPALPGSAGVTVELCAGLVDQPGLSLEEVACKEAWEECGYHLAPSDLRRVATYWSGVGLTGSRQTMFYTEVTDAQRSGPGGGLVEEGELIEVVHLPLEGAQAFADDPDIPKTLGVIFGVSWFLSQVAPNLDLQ
Experimental: as §1, §2, §3, §4

[1] = Specific activity and optimal pH of purified UGPPase products; format: biochemical; conditions: UGPPase activity
Experimental: as §1, §2, §3, §4

[2] = biological target: rabbit anti-hUGPPase antibody; test: hUGPPase ELISA; format: binding; conditions: rabbit anti-hUGPPase antibody as solid phase, fusion protein as standard (FIG. 23)
Experimental: The rabbit anti-hUGPPase antibody prepared in (14) above was diluted with 50 mM NaHCO3, pH 9.6 to prepare a 25 μg/ml solution. The solution was added to the wells of a 96-well plate (NUNC), 100 μl each, and incubated at 37° C. for 1 hour for coating. The antibody solution was removed and 300 μl of a blocking buffer [1.0% (w/v) BSA, PBS, 10 mM glycine, pH 7.4] was added to each well and incubated at 37° C. for 1 hour for blocking.
For preparation of a standard, hUGPPase His-tag fusion protein was diluted stepwise to 10 μg/ml-0.1 ng/ml using a dilution buffer [20 mM Tris, 150 mM NaCl, 0.1% (w/v) BSA, pH7.4].
To use as samples, two types of E. coli AD494(DE3) cells, the one with introduced plasmid pET-19b AAD15563.1 and the other with plasmid pET-19b, respectively, were lysed and diluted to 50, 5, 0.5 and 0.05 μg/ml with the dilution buffer. Each well of the plate was removed of the blocking buffer and washed 3 times with 300 μl each of TTBS. To each well was added 100 μl of the standard or the sample solution and an incubation followed at 37° C. for 1 hour.
For detection of hUGPPase His-tag fusion protein, the HRP-conjugated rabbit anti-hUGPPase antibody prepared in (15) was used after dilution to 0.5 μg/ml with the dilution buffer. […] After a 5-min incubation at room temperature, 50 μl of 2M H2SO4 was added to each well to terminate the reaction, and OD at 450 nm was measured.

% activity with respect to UDPG (Porcine UGPPase): bdl | % activity with respect to UDPG (human UGPPase): bdl
Molecule: Nc1ncnc2c1ncn2[C@@H]1O[C@H](COP(=O)(O)OP(=O)(O)O)[C@@H](O)[C@H]1O [ADP]

% activity with respect to UDPG (Porcine UGPPase): bdl | % activity with respect to UDPG (human UGPPase): bdl
Molecule: O=[N+]([O-])c1ccc(OP(=O)(O)O)cc1 [PNPP]

% activity with respect to UDPG (Porcine UGPPase): bdl | % activity with respect to UDPG (human UGPPase): bdl
Molecule: O=c1ccn([C@@H]2O[C@H](COP(=O)(O)OP(=O)(O)OP(=O)(O)O)[C@@H](O)[C@H]2O)c(=O)[nH]1 [UTP]

% activity with respect to UDPG (Porcine UGPPase): 95% | % activity with respect to UDPG (human UGPPase): 110%
Molecule: Nc1ncnc2c1ncn2[C@@H]1O[C@H](COP(=O)(O)OP(=O)(O)OC[C@H]2OC(O)[C@H](O)[C@@H]2O)[C@@H](O)[C@H]1O (stereo partly shown) [ADP-ribose]

EC50 (effecter concentration for half-maximum response) of the ELISA system [2]: 246.8 ng/mL
B2: hUGPPase His-tag fusion protein: His-tagged hUGPPase expressed from pET-19b AAD15563.1 in E. coli, purified; ELISA standard (protein)
chain: MGLLLPLPVPGLLLLEAETHPHFPCNHGQEGACTRHARVRAYPGPLVHRRKRPAWLWELAAPACPGAAMERIEGASVGRCAASPYLRPLTLHYRQNGAQKSWDFMKTHDSVTVLLFNSSRRSLVLVKQFRPAVYAGEVERRFPGSLAAVDQDGPRELQPALPGSAGVTVELCAGLVDQPGLSLEEVACKEAWEECGYHLAPSDLRRVATYWSGVGLTGSRQTMFYTEVTDAQRSGPGGGLVEEGELIEVVHLPLEGAQAFADDPDIPKTLGVIFGVSWFLSQVAPNLDLQ
modifications: left off: small tags and cut ends
notes: His-tagged hUGPPase expressed from pET-19b AAD15563.1 in E. coli, purified; ELISA standard

The remaining lines, values behind:

Molecule: NC(=O)c1ccc[n+]([C@@H]2O[C@H](COP(=O)([O-])OP(=O)(O)OC[C@H]3O[C@@H](n4cnc5c(N)ncnc54)[C@H](O)[C@@H]3O)[C@@H](O)[C@H]2O)c1 [NAD]
% activity with respect to UDPG (Porcine UGPPase): bdl | % activity with respect to UDPG (human UGPPase): bdl

Molecule: Nc1nc2c(ncn2[C@@H]2O[C@H](COP(=O)(O)OP(=O)(O)O[C@H]3O[C@H](CO)[C@@H](O)[C@H](O)[C@H]3O)[C@@H](O)[C@H]2O)c(=O)[nH]1 [GDPG, GDP-glucose]
% activity with respect to UDPG (Porcine UGPPase): ~10% | % activity with respect to UDPG (human UGPPase): ~10%

Molecule: Nc1ccn([C@@H]2O[C@H](COP(=O)(O)OP(=O)(O)O[C@H]3O[C@H](CO)[C@@H](O)[C@H](O)[C@H]3O)[C@@H](O)[C@H]2O)c(=O)n1 [CDPG]
% activity with respect to UDPG (Porcine UGPPase): 2% | % activity with respect to UDPG (human UGPPase): 3%

Molecule: O=[N+]([O-])c1ccc(OP(=O)(O)Oc2ccc([N+](=O)[O-])cc2)cc1 [Bis-PNPP]
% activity with respect to UDPG (Porcine UGPPase): bdl | % activity with respect to UDPG (human UGPPase): bdl

Molecule: Nc1ncnc2c1ncn2[C@@H]1O[C@H](COP(=O)(O)OP(=O)(O)OP(=O)(O)O)[C@@H](O)[C@H]1O [ATP]
% activity with respect to UDPG (Porcine UGPPase): bdl | % activity with respect to UDPG (human UGPPase): bdl

Molecule: O=C(O)[C@H]1O[C@H](OP(=O)(O)OP(=O)(O)OC[C@H]2O[C@@H](n3ccc(=O)[nH]c3=O)[C@H](O)[C@@H]2O)[C@H](O)[C@@H](O)[C@@H]1O [UDP-glucuronic]
% activity with respect to UDPG (Porcine UGPPase): bdl | % activity with respect to UDPG (human UGPPase): bdl

Molecule: Nc1ncnc2c1ncn2[C@@H]1O[C@H](COP(=O)(O)O)[C@@H](O)[C@H]1O [AMP, adenosine 5′-monophosphate]
% activity with respect to UDPG (Porcine UGPPase): bdl | % activity with respect to UDPG (human UGPPase): bdl

B1: human UGPPase: recombinant protein AAD15563.1 (SEQ ID NO:2) expressed in E. coli AD494(DE3), final MonoP-purified product (protein, listed as Homo sapiens)
chain: T2 sequence (O95848 1-222)
modifications: USPPase
Specific activity of the final purified product [1]: 6.7 U/mg | Specific activity of the final purified product ([1]; listed as r-hUGPPase): 6.74 U/mg
